Experimental data: patent US9850283B2, “Macrocyclic inhibitors of the PD-1/PD-L1 and CD80(B7-1)/PD-L1 protein/protein interactions” (BRISTOL-MYERS SQUIBB COMPANY, priority 2013, dated 2017)
Where two headings read alike, the source gives them in different places. Positions of bridges follow the written chain, without caps; N, C: chain ends. Non-standard residues stand in square brackets, D forms with d. Residues, ends and D or L forms follow the SMILES beside them. ξ: configuration not given here. Bip = N[C@@H](Cc1ccc(-c2ccccc2)cc1)C(=O)O; 1Nal = N[C@@H](Cc1cccc2ccccc12)C(=O)O; NMeF = CN[C@@H](Cc1ccccc1)C(=O)O; NMeNle = CCCC[C@H](NC)C(=O)O; NMeV = CN[C@H](C(=O)O)C(C)C; ξY = NC(Cc1ccc(O)cc1)C(=O)O; NMeA = CN[C@@H](C)C(=O)O; ξV = CC(C)C(N)C(=O)O; ξP = O=C(O)C1CCCN1; Sar = CNCC(=O)O

How the values were obtained:
[1] = biological target: T1, Human PD-L1/PD-1 (Homo sapiens, UniProt Q9NZQ7); assay: HTRF PD-1-Ig/PD-L1-His binding assay (human PD-L1); settings: read-out: HTRF Human PD-L1/PD-1 Binding Assay IC50
T1 construct: made in house; host or cells: HEK293T
Outline: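 Interaction of Fc-tagged soluble PD-1 with His-tagged soluble PD-L1 is monitored by time-resolved FRET. Donor is europium cryptate anti-Ig (1 nM final) and acceptor is APC anti-His (20 nM final). Assay buffer is dPBS with 0.1% BSA and 0.05% Tween-20.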

[2] = biological target: Hu PD-L1/PD-1 (Homo sapiens, UniProt Q9NZQ7); assay: Cell binding assay Hu PD-L1/PD-1 (Tables 11-13, cell line not given); assay type: cell-based
Protocol: The ability of the macrocyclic peptides of the present disclosure to bind to Jurkat, mouse B cell line (LK35.2), and a human lung adenocarcinoma cell line (L2987) was investigated. Jurkat-PD-1 Cell Binding Assay. Phycoerythrin (PE) was covalently linked to the Ig epitope tag of human PD-L1-Ig and fluorescently-labeled PD-L1-Ig was used for binding studies with a Jurkat cell line over-expressing human PD-1 (Jurkat-PD-1). […] Cells were washed 3× in dPBS. Cells were resuspended in 200 μl of dPBS and binding was measured by flow cytometry. LK35.2-hPD-L1 Cell Binding Assay. Phycoerythrin (PE) was covalently linked to the Ig eptitope tag of human PD-1-Ig and fluorescently-labeled PD-1-Ig was used for binding studies with a mouse B cell line (LK35.2) stably over-expressing human PD-L1 (LK35.2-hPD-L1). Briefly, […] LK35.2-hPD-L1 cells were pre-incubated with inhibitor for 15 m in a 30 μl volume of RPMI supplemented with 2% fetal calf serum. 20 μl of PE-labeled PD-1-Ig (2 nM final), diluted in RPMI supplemented with 2% fetal calf serum, was dispensed on top of cells and inhibitor and binding was allowed to take place for 1 h at room temperature. Cells were washed 3× in dPBS. Cells were resuspended in 200 μl of dPBS and binding was measured by flow cytometry. L2987 Cellomics Cell Binding Assay. Phycoerythrin (PE) was covalently linked to the Ig eptitope tag of human PD-1-Ig and fluorescently-labeled PD-1-Ig was used for binding studies with a human lung adenocarcinoma cell line (L2987) which naturally expresses PD-L1. […] The following day, inhibitors were diluted in serum-free DMEM and 25 μl was dispensed on top of cells. […] Samples were incubated for 1 h at 37° C. followed by 2 washes in dPBS and fixation for 30 m with 4% paraformaldehyde. Samples were further washed 2× in dPBS. Hoechst (final 1 μg/ml) was added to final wash to stain nuclei. Plates were processed using a Cellomics […]®.

[3] = Table 9, Compound No. 71 variant macrocyclic peptides
[4] = Table 13, Compound No. 71 series
[5] = Table 8, Compound No. 1 variant macrocyclic peptides

Hu PD-L1/PD-1, sequence (Q9NZQ7 19-290): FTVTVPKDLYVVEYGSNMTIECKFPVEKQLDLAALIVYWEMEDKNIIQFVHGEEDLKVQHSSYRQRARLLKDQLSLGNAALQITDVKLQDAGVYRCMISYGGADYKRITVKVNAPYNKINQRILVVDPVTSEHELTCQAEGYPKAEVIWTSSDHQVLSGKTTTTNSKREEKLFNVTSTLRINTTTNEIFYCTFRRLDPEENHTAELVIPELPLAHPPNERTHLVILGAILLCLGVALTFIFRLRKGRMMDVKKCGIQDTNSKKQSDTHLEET
T1 sequence (Q9NZQ7 with tags, fused parts or gaps): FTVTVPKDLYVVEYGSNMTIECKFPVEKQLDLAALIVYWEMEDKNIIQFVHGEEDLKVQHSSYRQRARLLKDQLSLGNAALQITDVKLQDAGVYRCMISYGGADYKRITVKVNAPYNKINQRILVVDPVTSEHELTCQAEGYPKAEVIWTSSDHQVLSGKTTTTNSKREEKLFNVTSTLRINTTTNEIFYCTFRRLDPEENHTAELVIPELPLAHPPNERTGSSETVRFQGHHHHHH

SMILES | IC50 [2, 4] | IC50 [1, 5] | IC50 [2] | other results
CCCC[C@H]1C(=O)N(C)CC(=O)N[C@@H](CC(=O)O)C(=O)N[C@@H](C(C)C)C(=O)N(C)[C@@H](Cc2ccccc2)C(=O)N[C@@H](Cc2ccc(O)cc2)C(=O)N(C)CC(=O)N[C@@H](Cc2c[nH]c3ccccc23)C(=O)N[C@@H](Cc2ccc(O)cc2)C(=O)N[C@@H](C)C(=O)N[C@H](C(=O)NCC(N)=O)CSCC(=O)N[C@@H](Cc2ccccc2)C(=O)N(C)[C@@H](Cc2ccccc2)C(=O)N1C [Compound No. 87] (HELM PEPTIDE1{[O=C(C[*:3])[*:2]].F.[meF].[CCCC[C@@H](C(=O)[*:2])N(C)[*:1]].[Sar].D.V.[meF].Y.[Sar].W.Y.A.C.G.[am]}$PEPTIDE1,PEPTIDE1,1:R3-14:R3$$$V2.0) | 73 nM |  |  | IC50 [1, 3]: 25 nM
CCCC[C@H]1C(=O)N(C)CC(=O)N[C@@H](CC(=O)O)C(=O)N[C@@H](C(C)C)C(=O)N(C)[C@@H](C)C(=O)N[C@@H](Cc2ccc(O)cc2)C(=O)N(C)CC(=O)N[C@@H](Cc2c[nH]c3ccccc23)C(=O)N[C@@H](Cc2ccc(O)cc2)C(=O)N[C@@H](CC(C)C)C(=O)N[C@H](C(=O)NCC(N)=O)CSCC(=O)N[C@@H](Cc2ccccc2)C(=O)N(C)[C@@H](Cc2ccccc2)C(=O)N1C [Compound No. 81] (HELM PEPTIDE1{[O=C(C[*:3])[*:2]].F.[meF].[CCCC[C@@H](C(=O)[*:2])N(C)[*:1]].[Sar].D.V.[meA].Y.[Sar].W.Y.L.C.G.[am]}$PEPTIDE1,PEPTIDE1,1:R3-14:R3$$$V2.0) | > 10000 nM |  |  | IC50 [1, 3]: > 10000 nM
CCCC[C@H]1C(=O)N(C)[C@@H](CCCC)C(=O)N[C@@H](CC(C)C)C(=O)N[C@H](C(=O)NCC(N)=O)CSCC(=O)N[C@@H](Cc2ccccc2)C(=O)N(C)[C@@H](C)C(=O)N[C@@H](CC(N)=O)C(=O)N2CCC[C@H]2C(=O)N[C@@H](Cc2c[nH]cn2)C(=O)N[C@@H](CC(C)C)C(=O)N[C@@H](CO)C(=O)N[C@@H](Cc2c[nH]c3ccccc23)C(=O)N[C@@H](CCCNC(=N)N)C(=O)N[C@@H](Cc2c[nH]c3ccccc23)C(=O)N1C [Compound No. 4] ({CH2CO}-F[NMeA]NPHLSWRW[NMeNle][NMeNle]LCG-NH2; thioether N-14) |  |  |  | IC50 ([1]; Table 6): 15 nM; IC50 ([2]; Table 11): 15 nM
CCCC[C@H]1C(=O)N(C)[C@@H](CCCC)C(=O)N[C@@H](CCCNC(=N)N)C(=O)N[C@H](C(=O)NCC(N)=O)CSCC(=O)N[C@@H](Cc2ccc(O)cc2)C(=O)N(C)[C@@H](C)C(=O)N[C@@H](CC(N)=O)C(=O)N2CCC[C@H]2C(=O)N[C@@H](Cc2cnc[nH]2)C(=O)N[C@@H](CC(C)C)C(=O)N(C)CC(=O)N[C@@H](Cc2c[nH]c3ccccc23)C(=O)N[C@@H](CO)C(=O)N[C@@H](Cc2c[nH]c3ccccc23)C(=O)N1C [Compound No. 30] |  | 5 nM | 3 nM | 
CCCC[C@H]1C(=O)N(C)CC(=O)N[C@@H](CC(=O)O)C(=O)N[C@@H](C(C)C)C(=O)N(C)[C@@H](Cc2ccccc2)C(=O)N[C@@H](Cc2ccc(O)cc2)C(=O)N(C)CC(=O)N[C@@H](Cc2c[nH]c3ccccc23)C(=O)NC(Cc2ccc(O)cc2)C(=O)N[C@@H](CC(C)C)C(=O)N[C@H](C(=O)NCC(N)=O)CSCC(=O)N[C@@H](Cc2ccccc2)C(=O)N[C@@H](Cc2ccccc2)C(=O)N1C (stereo partly drawn) [Compound No. 74] ({CH2CO}-FF[NMeNle][Sar]DV[NMeF]Y[Sar]W[ξY]LCG-NH2; thioether N-13) | > 10000 nM |  |  | IC50 [1, 3]: > 10000 nM
CCCC[C@H]1C(=O)N(C)[C@@H](CCCC)C(=O)N[C@@H](CCCNC(=N)N)C(=O)N[C@@H](C(=O)NCC(N)=O)CSCC(=O)N[C@@H](Cc2cccc3ccccc23)C(=O)N(C)[C@@H](C)C(=O)N[C@@H](CC(N)=O)C(=O)N2CCC[C@H]2C(=O)N[C@@H](Cc2cnc[nH]2)C(=O)N[C@@H](CC(C)C)C(=O)N(C)CC(=O)N[C@@H](Cc2c[nH]c3ccccc23)C(=O)N[C@@H](CO)C(=O)N[C@@H](Cc2c[nH]c3ccccc23)C(=O)N1C [Compound No. 27] ({CH2CO}-[1Nal][NMeA]NPHL[Sar]WSW[NMeNle][NMeNle]R[dC]G-NH2; thioether N-14) |  | 20 nM | 28 nM | 
CCCC[C@H]1C(=O)N(C)CC(=O)N[C@@H](CC(=O)O)C(=O)N[C@@H](C(C)C)C(=O)N(C)[C@@H](Cc2ccccc2)C(=O)N[C@@H](Cc2ccc(O)cc2)C(=O)N(C)CC(=O)N[C@@H](Cc2c[nH]c3ccccc23)C(=O)N[C@@H](Cc2ccc(O)cc2)C(=O)N[C@@H](CC(C)C)C(=O)N[C@H](C(=O)NCC(N)=O)CSCC(=O)N[C@@H](C)C(=O)N(C)[C@@H](Cc2ccccc2)C(=O)N1C [Compound No. 72] (HELM PEPTIDE1{[O=C(C[*:3])[*:2]].A.[meF].[CCCC[C@@H](C(=O)[*:2])N(C)[*:1]].[Sar].D.V.[meF].Y.[Sar].W.Y.L.C.G.[am]}$PEPTIDE1,PEPTIDE1,1:R3-14:R3$$$V2.0) | > 10000 nM |  |  | 
CCCC[C@H]1C(=O)N(C)CC(=O)N[C@@H](CC(=O)O)C(=O)NC(C(C)C)C(=O)N(C)[C@@H](Cc2ccccc2)C(=O)N[C@@H](Cc2ccc(O)cc2)C(=O)N(C)CC(=O)N[C@@H](Cc2c[nH]c3ccccc23)C(=O)N[C@@H](C)C(=O)N[C@@H](CC(C)C)C(=O)N[C@H](C(=O)NCC(N)=O)CSCC(=O)N[C@@H](Cc2ccccc2)C(=O)N(C)[C@@H](Cc2ccccc2)C(=O)N1C (stereo partly drawn) [Compound No. 86] ({CH2CO}-F[NMeF][NMeNle][Sar]D[ξV][NMeF]Y[Sar]WALCG-NH2; thioether N-13) | 7250 nM |  |  | 
CCCC[C@H]1C(=O)N(C)[C@@H](CCCC)C(=O)N[C@@H](CCCNC(=N)N)C(=O)N[C@H](C(=O)NCC(N)=O)CSCC(=O)N[C@@H](C)C(=O)N(C)[C@@H](C)C(=O)N[C@@H](CC(N)=O)C(=O)N2CCCC2C(=O)N[C@@H](Cc2cnc[nH]2)C(=O)N[C@@H](CC(C)C)C(=O)N(C)CC(=O)N[C@@H](Cc2c[nH]c3ccccc23)C(=O)N[C@@H](CO)C(=O)N[C@@H](Cc2c[nH]c3ccccc23)C(=O)N1C (stereo partly drawn) [Compound No. 5] ({CH2CO}-A[NMeA]N[ξP]HL[Sar]WSW[NMeNle][NMeNle]RCG-NH2; thioether N-14) |  |  | > 10000 nM | 

More lines, main results first:

IC50 [2, 4] | IC50 [1, 5] | IC50 [2] | SMILES | other results
 | 4 nM | 3 nM | CCCC[C@H]1C(=O)N(C)[C@@H](CCCC)C(=O)N[C@@H](CCCNC(=N)N)C(=O)N[C@H](C(=O)NCC(N)=O)CSCC(=O)N[C@@H](Cc2ccccc2)C(=O)N(C)[C@@H](C)C(=O)N[C@@H](CC(N)=O)C(=O)N2CCC[C@H]2C(=O)N[C@@H](Cc2cnc[nH]2)C(=O)N[C@@H](CC(C)C)C(=O)N2CCC[C@H]2C(=O)N[C@@H](Cc2c[nH]c3ccccc23)C(=O)N[C@@H](CO)C(=O)N[C@@H](Cc2c[nH]c3ccccc23)C(=O)N1C [Compound No. 55] ({CH2CO}-F[NMeA]NPHLPWSW[NMeNle][NMeNle]RCG-NH2; thioether N-14) | 
 | 33 nM | 134 nM | CCCC[C@H]1C(=O)N[C@@H](CCCNC(=N)N)C(=O)N[C@H](C(=O)NCC(N)=O)CSCC(=O)N[C@@H](Cc2ccccc2)C(=O)N(C)[C@@H](C)C(=O)N[C@@H](CC(N)=O)C(=O)N2CCCC2C(=O)N[C@@H](Cc2cnc[nH]2)C(=O)N[C@@H](CC(C)C)C(=O)N(C)CC(=O)N[C@@H](Cc2c[nH]c3ccccc23)C(=O)N[C@@H](CO)C(=O)N[C@@H](Cc2c[nH]c3ccccc23)C(=O)N(C)[C@@H](C)C(=O)N1C (stereo partly drawn) [Compound No. 19] ({CH2CO}-F[NMeA]N[ξP]HL[Sar]WSW[NMeA][NMeNle]RCG-NH2; thioether N-14) | 
 |  | 82 nM | CCCC[C@H]1C(=O)N(C)[C@@H](CCCC)C(=O)N[C@@H](CCCNC(=N)N)C(=O)N[C@H](C(=O)NCC(N)=O)CSCC(=O)N[C@@H](Cc2ccc(-c3ccccc3)cc2)C(=O)N(C)[C@@H](C)C(=O)N[C@@H](CC(N)=O)C(=O)N2CCC[C@H]2C(=O)N[C@@H](Cc2cnc[nH]2)C(=O)N[C@@H](CC(C)C)C(=O)N(C)CC(=O)N[C@@H](Cc2c[nH]c3ccccc23)C(=O)N[C@@H](CO)C(=O)N[C@@H](Cc2c[nH]c3ccccc23)C(=O)N1C [Compound No. 28] ({CH2CO}-[Bip][NMeA]NPHL[Sar]WSW[NMeNle][NMeNle]RCG-NH2; thioether N-14) | 
 |  | > 10000 nM | CCCC[C@H]1C(=O)N(C)[C@@H](CCCC)C(=O)N[C@@H](CCCNC(=N)N)C(=O)N[C@H](C(=O)NCC(N)=O)CSCC(=O)N[C@@H](Cc2ccccc2)C(=O)N(C)[C@@H](C(C)C)C(=O)N[C@@H](CC(N)=O)C(=O)N2CCC[C@H]2C(=O)N[C@@H](Cc2c[nH]cn2)C(=O)N[C@@H](CC(C)C)C(=O)N(C)CC(=O)N[C@@H](Cc2c[nH]c3ccccc23)C(=O)N[C@@H](CO)C(=O)N[C@@H](Cc2c[nH]c3ccccc23)C(=O)N1C [Compound No. 41] ({CH2CO}-F[NMeV]NPHL[Sar]WSW[NMeNle][NMeNle]RCG-NH2; thioether N-14) | 
